The values that follow come from patent US5691311A (Biogen, Inc., priority 1995, dated 1997).

In data set [1] the test system is platelet-dependent thrombosis. As to conditions: collagen-coated surfaces, reported values; cited from earlier work.
The subject of data set [2] is APTT. Description: Systemic anticoagulant effect (APTT) of antithrombotic agents. Type of data set: in vivo, baboon. As to conditions: dose not given. An excerpt:
We also tested the effects of a variety of other agents on template bleeding time in the baboon, as well as on systemic anticoagulant effects (as measured by APTT).

Data set [3] has as its system hemostasis. Description: Template bleeding time. Type of data set: in vivo, baboon.
Data set [4] addresses T1, human α-thrombin (Homo sapiens, UniProt P00734).
T1 construct: proteolysis of the B-chain of α-thrombin; human α-thrombin-catalyzed hydrolysis of Spectrozyme TH
Description: Thrombin-catalyzed hydrolysis of Spectrozyme TH. Type of data set: biochemical. As to conditions: for inhibitory activity versus linker length: FIG. 6; for Ki: method of Example 9, Spectrozyme TH. Here is the method: The thrombin-catalyzed rate was monitored in a Cary 19 spectrophotometer at 405 nm and recorded continuously as a function of time. Kinetics were performed at room temperature (25°±1°C.) in a 0.05M Tris, pH 7.5, 0.1M NaCl buffer.
For a typical enzyme reaction, 1.0 ml of buffer was added to both the sample and reference cuvettes. […] Immediately following addition of substrate, the contents of the sample cuvette were mixed by use of a plastic pipette. The reaction was monitored spectrophotometrically for 5-15 minutes.
Initial rate velocities at each substrate concentration were expressed as moles Spectrozyme TH hydrolyzed/sec/mole thrombin. This was determined during the initial linear phase of the reaction (≤15% total hydrolysis of substrate) by measuring the slope of the hydrolytic reaction. Lineweaver-Burke plots were constructed accordingly, by plotting the inverse of the initial velocity against the inverse of the substrate concentration.

Data set [5] relates to human α-thrombin (1.6 nM chromogenic assay; 0.25 μM HPLC assay). Description: human α-thrombin in 20 mM Tris-HCl pH 7.4 containing 0.1M NaCl.

In the case of `CC1CNc2c(cccc2S(=O)(=O)N[C@@H](CCCNC(=N)N)C(=O)N2CC[C@@H](C)C[C@@H]2C(=O)O)C1` (some centres unmarked) [Argipidine (MD805), argatroban (argipidine)], the ED50 in data set [1] was 550 nmol/kg/min. The “APTT (% control)” value in data set [2] is > 900 % control. Also, in data set [3] (in vivo), the “Bleeding Time” value is > 30 min.

On to `N=C(N)c1ccccc1` [Benzamidine, benzamidine], for which the median effective dose (ED50) in data set [1] is 3000 nmol/kg/min. In data set [2], the “APTT (% control)” value is recorded as 757.6 % control. Further, the “Bleeding Time” value in data set [3] (dose not given) amounted to 10 min.

In the case of `CC[C@H](C)[C@H](NC(=O)[C@H](CCC(=O)O)NC(=O)[C@H](CCC(=O)O)NC(=O)[C@H](Cc1ccccc1)NC(=O)[C@H](CC(=O)O)NC(=O)CNC(=O)[C@H](CC(N)=O)NC(=O)CNC(=O)CNC(=O)[C@@H]1CCCN1C(=O)[C@H](CCCNC(=N)N)NC(=O)[C@@H]1CCCN1C(=O)[C@H](N)Cc1ccccc1)C(=O)N1CCC[C@H]1C(=O)N[C@@H](CCC(=O)O)C(=O)N[C@@H](CCC(=O)O)C(=O)N[C@@H](Cc1ccc(O)cc1)C(=O)N[C@@H](CC(C)C)C(=O)O` [Hirulog-13], the reduction of activity result in data set [4] (18 Å linker length, versus Hirulogs-8, -15, -16) is “more than 10 fold”.

Turning to `CC[C@H](C)[C@H](NC(=O)[C@H](CCC(=O)O)NC(=O)[C@H](CCC(=O)O)NC(=O)[C@H](Cc1ccccc1)NC(=O)[C@H](CC(=O)O)NC(=O)CNC(=O)[C@H](CC(N)=O)NC(=O)CNC(=O)CNC(=O)CNC(=O)CNC(=O)CNC(=O)CNC(=O)[C@@H]1CCCN1C(=O)[C@H](CCCNC(=N)N)NC(=O)[C@@H]1CCCN1C(=O)[C@H](N)Cc1ccccc1)C(=O)N1CCC[C@H]1C(=O)N[C@@H](CCC(=O)O)C(=O)N[C@@H](CCC(=O)O)C(=O)N[C@@H](Cc1ccc(O)cc1)C(=O)N[C@@H](CC(C)C)C(=O)O` [Hirulog-15], the “inhibitory activity versus linker length” value in data set [4] is “comparable inhibitory activities”.

`CC[C@H](C)[C@H](NC(=O)[C@H](CCC(=O)O)NC(=O)[C@H](CCC(=O)O)NC(=O)[C@H](Cc1ccccc1)NC(=O)[C@H](CC(=O)O)NC(=O)CNC(=O)[C@H](CC(N)=O)NC(=O)CNC(=O)CNC(=O)CNC(=O)CNC(=O)CNC(=O)CNC(=O)CNC(=O)CNC(=O)[C@@H]1CCCN1C(=O)[C@H](CCCNC(=N)N)NC(=O)[C@@H]1CCCN1C(=O)[C@H](N)Cc1ccccc1)C(=O)N1CCC[C@H]1C(=O)N[C@@H](CCC(=O)O)C(=O)N[C@@H](CCC(=O)O)C(=O)N[C@@H](Cc1ccc(O)cc1)C(=O)N[C@@H](CC(C)C)C(=O)O` [Hirulog-16]: the “inhibitory activity versus linker length” value in data set [4] is reported as “comparable inhibitory activities”.

Take `CC[C@H](C)[C@H](NC(=O)[C@H](CCC(=O)O)NC(=O)[C@H](CCC(=O)O)NC(=O)[C@H](Cc1ccccc1)NC(=O)[C@H](CC(=O)O)NC(=O)CNC(=O)[C@H](CC(N)=O)NC(=O)CNC(=O)CNC(=O)CNC(=O)CNC(=O)CNC(=O)C[C@H](CCCNC(=N)N)NC(=O)[C@@H]1CCCN1C(=O)[C@H](N)Cc1ccccc1)C(=O)N1CCC[C@H]1C(=O)N[C@@H](CCC(=O)O)C(=O)N[C@@H](CCC(=O)O)C(=O)N[C@@H](Cc1ccc(O)cc1)C(=O)N[C@@H](CC(C)C)C(=O)O` [Hirulog-18a]: the Ki in data set [4] was determined as 7.4 nM. This counts as single-digit nanomolar.

The compound `CC[C@H](C)[C@H](NC(=O)[C@H](CCC(=O)O)NC(=O)[C@H](CCC(=O)O)NC(=O)[C@H](Cc1ccccc1)NC(=O)[C@H](CC(=O)O)NC(=O)CNC(=O)[C@H](CC(N)=O)NC(=O)CNC(=O)CNC(=O)CNC(=O)CNC(=O)[C@@H]1CCCN1C(=O)C[C@H](CCCNC(=N)N)NC(=O)[C@@H]1CCCN1C(=O)[C@H](N)Cc1ccccc1)C(=O)N1CCC[C@H]1C(=O)N[C@@H](CCC(=O)O)C(=O)N[C@@H](CCC(=O)O)C(=O)N[C@@H](Cc1ccc(O)cc1)C(=O)N[C@@H](CC(C)C)C(=O)O` [Hirulog-18b] returned a Ki in data set [4] of 4.6 nM. Compared with the last compound, the Ki is about 1.6-fold lower.

Take `CC[C@H](C)[C@H](NC(=O)[C@H](CCC(=O)O)NC(=O)[C@H](CCC(=O)O)NC(=O)[C@H](Cc1ccccc1)NC(=O)[C@H](CC(=O)O)NC(=O)CNC(=O)[C@H](CC(N)=O)NC(=O)CNC(=O)CNC(=O)CNC(=O)CNC(=O)[C@@H](NC(=O)C[C@H](CCCNC(=N)N)NC(=O)[C@@H]1CCCN1C(=O)[C@H](N)Cc1ccccc1)C(C)C)C(=O)N1CCC[C@H]1C(=O)N[C@@H](CCC(=O)O)C(=O)N[C@@H](CCC(=O)O)C(=O)N[C@@H](Cc1ccc(O)cc1)C(=O)N[C@@H](CC(C)C)C(=O)O` [Hirulog-18c]: the Ki in data set [4] worked out at 205 nM. This Ki lies about 45-fold higher than the previous one.

With `CC[C@H](C)[C@H](NC(=O)[C@H](CCC(=O)O)NC(=O)[C@H](CCC(=O)O)NC(=O)[C@H](Cc1ccccc1)NC(=O)[C@H](CC(=O)O)NC(=O)CNC(=O)[C@H](CC(N)=O)NC(=O)CNC(=O)CNC(=O)CNC(=O)CNC(=O)CNC[C@H](CCCNC(=N)N)NC(=O)[C@@H]1CCCN1C(=O)[C@H](N)Cc1ccccc1)C(=O)N1CCC[C@H]1C(=O)N[C@@H](CCC(=O)O)C(=O)N[C@@H](CCC(=O)O)C(=O)N[C@@H](Cc1ccc(O)cc1)C(=O)N[C@@H](CC(C)C)C(=O)O` [Hirulog-19], the affinity in data set [4] corresponds to a Ki of 20 nM.

Take `NC(N)=NCCC[C@H](NC(=O)[C@@H]1CCCN1C(=O)[C@H](N)Cc1ccccc1)C(=O)CCl` [PPACK, D-Phe-Pro-Arg-CHCl2]: the median effective dose (ED50) in data set [1] was 75 nmol/kg/min. Further, the “APTT (% control)” value in data set [2] amounted to 287.9 % control. The “Bleeding Time” value in data set [3] (dose not given) stood at 12 min.

Regarding “H-(D-Phe)-Pro-Arg-(Gly)5 -Asn-Gly-Asp-Phe-Glu-Glu-Ile-Pro-Glu-Glu-Tyr-Leu-OH”, in data set [5], the cleaved bond entry is given as “Arg-Gly”.

Turning to “H-(D-Phe)-Pro-Arg-Pro-(Gly)4 -Asn-Gly-Asp-Phe-Glu-Glu-Ile-Pro-Glu-Glu-Tyr-Leu-OH”, in data set [5], the cleaved bond result is on record as “Arg-Pro, minor”.

As for “H-(D-Phe)-Pro-Arg-Sar-(Gly)5 -Asn-Gly-Asp-Phe-Glu-Glu-Ile-Pro-Glu-Glu-Tyr-Leu-OH”, in data set [5], the cleaved bond result is listed as “Arg-Sar”.

Turning to “N-acetyl-Gly-Asp-phe-Leu-Ala-Glu-(Gly)3 -Val-Arg-Pro-(Gly)4 -Asn-Gly-Asp-Phe-Glu-Glu-Ile-Pro-Glu-Glu-Tyr-Leu-OH”, the cleaved bond entry in data set [5] is reported as “Arg-Pro, minor”.

As usually defined, the ED50 is the midpoint of the dose-response relation. For orientation: Ki means the dissociation constant of the complex between target and ligand, obtained from inhibition or displacement.
